Data from PubChem BioAssay (NCI).
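Five compound concentrations were applied to cells in 96-well plates for 48 hours; endpoints were derived by simple linear interpolation of the resulting dose-response curve. GI50 is the concentration that inhibits growth by half. TGI marks complete inhibition of growth.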

What was measured:
Experiment in all cases: growth of human tumour cells (NCI), 48 h
M19-MEL melanoma = test system: M19-MEL melanoma
LXFL 529 NSCLC = test system: LXFL 529 NSCLC
KM20L2 colon = test system: KM20L2 colon
DLD-1 colon = test system: DLD-1 colon
HS 578T breast = test system: HS 578T breast
NCI/ADR-RES ovarian = test system: NCI/ADR-RES ovarian
DU-145 prostate = test system: DU-145 prostate
BT-549 breast = test system: BT-549 breast
MCF7 breast = test system: MCF7 breast
MDA-MB-435 = test system: MDA-MB-435

Row | Structure (SMILES) | TGI (M19-MEL melanoma) | TGI (LXFL 529 NSCLC) | TGI (KM20L2 colon) | TGI (DLD-1 colon) | further results
1 | CC(Cl)(/C=C/Cl)C(Cl)/C=C/C(Cl)(CCl)CBr (stereo unspecified) | 13.5 µM | 2.5 µM | 23.9 µM | 12.5 µM | 
2 | Cn1nc(-c2ccccc2NC(=O)C(F)(F)F)c(=O)n(C)c1=S | 48.7 µM | > 100 µM |  | > 100 µM | 
3 | C/C(=N\NC(=S)Nc1ccc(C(=O)O)cc1)c1ccccn1 | 49.7 µM | > 100 µM | 78.9 µM | > 100 µM | 
4 | Cc1cc(C)nc(NS(=O)(=O)c2ccc(Nc3c4ccccc4nc4c(C(=O)Nc5ccc(S(N)(=O)=O)cc5)cccc34)cc2)n1 | > 100 µM | > 100 µM | > 100 µM | > 100 µM | 
5 | CCOC(=O)C1C=C2O[C@@H]3OC4(CCCCC4)O[C@@H]3C2[C@H]2C(=O)C=CC(=O)[C@@]12C(=O)OC (stereo partly specified) | 31.4 µM | 22.9 µM | 30.6 µM | 35.1 µM | 
6 | Cn1ncc2cc3c(Nc4ccc(Cl)cc4)cccc3nc21 | 43.9 µM | 42.7 µM | 34.8 µM | > 100 µM | 
7 | O=C1C2=C(c3ccccc31)C(c1cccc(Cl)c1)NC(=S)N2 (stereo unspecified) | > 100 µM | > 100 µM | > 100 µM | > 100 µM | 
8 | CCOP(=O)(OCC)C1C(=O)O[C@H]2CCCC[C@@H]12 (stereo partly specified) | > 100 µM | > 100 µM | > 100 µM | > 100 µM | 
9 | CCOC(=O)c1cccc(=O)c(C(=O)OCC)c1 | > 100 µM | > 100 µM | > 100 µM | > 100 µM | 
10 | CCCCCCC(=O)C/C(CCC(=O)N(Cc1ccccc1)Cc1ccccc1)=N\Nc1ccc([N+](=O)[O-])cc1[N+](=O)[O-] | > 100 µM | > 100 µM | > 100 µM | > 100 µM | 
11 | O=[N+]([O-])c1ccc(-c2ccc(/C=N/n3c(-c4ccc(Cl)cc4)n[nH]c3=S)o2)cc1 | > 55.8 µM | > 71.1 µM | > 65.8 µM | > 100 µM | 
12 | COc1cc(C2C(Cl)C(=O)N2n2cnc3ccccc3c2=O)cc(OC)c1OC (stereo unspecified) | > 100 µM | > 100 µM | > 100 µM | > 100 µM | 
13 | O=S(=O)(O)CS(=O)(=O)OCCCl | > 100 µM | > 100 µM | > 100 µM | > 100 µM | 
14 | COc1ccc(-c2oc3cc(O)c(OC)c(O)c3c(=O)c2OC2OC(CO)C(O)C(O)C2O)cc1 (stereo unspecified) | > 100 µM | > 100 µM | > 100 µM | > 100 µM | 
15 | N#Cc1ccccc1NC(=O)C(=O)C(C(=O)c1ccccc1-c1ccccc1)C1OC(=O)c2ccccc21 (stereo unspecified) | 35.3 µM |  | 40.8 µM | 32.4 µM | 
16 | FC(F)(F)P1C2C=CC(CC2)C1(F)F (stereo unspecified) | > 100 µM | > 100 µM | > 100 µM | > 100 µM | 
17 | CCOC(=O)Cc1c(Cc2[nH]c(C(=O)OCc3ccccc3)c(CC(=O)OCC)c2CC(=O)OCC)[nH]c(C(=O)OCc2ccccc2)c1CC(=O)OCC | > 100 µM | > 100 µM | > 100 µM |  | 
18 | CC(=O)[CH-]C(=O)c1ccccc1.CC(=O)[CH-]C(=O)c1ccccc1.CCN(CC)CC[O-].CCN(CC)CC[O-].Cl.[Ti+4] | 52.2 µM | 68.3 µM | > 100 µM |  | GI50 (M19-MEL melanoma): 17.6 µM; GI50 (LXFL 529 NSCLC): 22.2 µM; GI50 (KM20L2 colon): 28.9 µM
19 | CC(=O)O[C@H]1C(=O)[C@@]2(C)C([C@H](OC(=O)c3ccccc3)[C@]3(O)C[C@H](OC(=O)[C@H](O)[C@H](NC(=O)c4ccccc4)c4ccc(Cl)cc4)C(C)=C1C3(C)C)C1(OC(C)=O)CO[C@@H]1C[C@@H]2O (stereo partly specified) |  | 26 µM |  |  | 
20 | CC1=C(C(=O)Nc2ccccc2)C(c2ccc3c(c2)OCO3)C(C(=O)Nc2ccccc2)=C(C)N1 | > 100 µM | > 100 µM |  | > 100 µM | 
21 | NC(N)=NS(=O)(=O)c1ccc(NC(=O)c2cccc3c(Nc4ccc(S(=O)(=O)N=C(N)N)cc4)c4ccc(Cl)cc4nc23)cc1 |  | > 100 µM | > 100 µM | > 100 µM | 
22 | CCCCCCCCCCCCCCCCCCNC(=O)[C@H]1CSC(c2ccc(OC)c(F)c2)N1 (stereo partly specified) |  |  |  |  | GI50 (HS 578T breast): 4.29 µM; TGI (HS 578T breast): 20.3 µM; GI50 (NCI/ADR-RES ovarian): 2.52 µM; TGI (NCI/ADR-RES ovarian): 6.22 µM; GI50 (DU-145 prostate): 24.2 µM; TGI (DU-145 prostate): > 54.6 µM; GI50 (BT-549 breast): 1.71 µM; TGI (BT-549 breast): 4.04 µM; GI50 (MCF7 breast): 0.386 µM; TGI (MCF7 breast): 1.4 µM; GI50 (MDA-MB-435): 1.22 µM; TGI (MDA-MB-435): 2.91 µM
23 | COc1cc[nH]c1/C=C1\C(=O)Nc2ccc(F)c(C#C[C@@H](O)[C@@H](N)[C@@H](C)O)c21 |  |  |  |  | GI50 (HS 578T breast): 0.381 µM; TGI (HS 578T breast): 1.68 µM; GI50 (NCI/ADR-RES ovarian): 6.65 µM; TGI (NCI/ADR-RES ovarian): 25 µM; GI50 (DU-145 prostate): 0.529 µM; TGI (DU-145 prostate): 3.5 µM; GI50 (BT-549 breast): 0.642 µM; TGI (BT-549 breast): 1.65 µM; GI50 (MCF7 breast): 0.545 µM; TGI (MCF7 breast): 4.3 µM; GI50 (MDA-MB-435): 0.561 µM; TGI (MDA-MB-435): 2.83 µM
24 | NNC(=O)/C(=C/c1cccc([N+](=O)[O-])c1)NC(=O)c1ccccc1 | > 100 µM | > 100 µM |  | > 100 µM | 
25 | CCCCOC(=O)C(=O)C(CC(C(=O)Cc1ccccc1)c1ccccc1)C(=O)C=C(C)C (stereo unspecified) |  |  |  |  | TGI (HS 578T breast): > 100 µM; TGI (NCI/ADR-RES ovarian): > 100 µM; TGI (DU-145 prostate): > 100 µM; TGI (BT-549 breast): > 100 µM; TGI (MCF7 breast): > 100 µM; TGI (MDA-MB-435): > 100 µM
